This is an account of results in patent US20070286898A1, “Intracellular Drug Delivery Improving Liposome” (ASTELLAS PHARMA INC., priority 2004, published 2007).

The experiment has as its system Ehrlich's ascites carcinoma cell. The experiment is described as follows: Cell-killing effect upon Ehrlich's ascites carcinoma cell using WST. To be noted: 1×10^6 cells, read-out: IC50 (doxorubicin concentration by which 50% of cell-killing effect is obtained). Format: cell-based. The procedure:
The preparations prepared in Examples 1 and 2 and Comparative Examples 1, 2 and 3 were adjusted to various concentrations, and the resulting liquids were added to Ehrlich's ascites carcinoma cell (1×10^6 cells) to examine their cell-killing effects using WST.
Based on the results of plotting a relationship between the doxorubicin concentration in each preparation and its cell-killing effect, the doxorubicin concentration by which 50% of cell-killing effect is obtained was calculated (Table 1). By this, it was shown that the liposome preparations of the present invention show significant pharmacological effect in comparison with Comparative Examples.

Take `COc1cccc2c1C(=O)c1c(O)c3c(c(O)c1C2=O)C[C@@](O)(C(=O)CO)C[C@@H]3O[C@H]1C[C@H](N)[C@H](O)[C@H](C)O1` [Comparative Example 3, doxorubicin]: the IC50 came out at 3.45 µM.
